Test results taken from patent US9096524B2, “Anthelmintic agents and their use” (Intervet International B.V., priority 2009, dated 2015).
Read-outs that look alike come from different tables or passages of the source.

Columns and labels:
[1] = system: A. galli (intestinal roundworm of chicken) larval stage 3; O. dentatum (nodular worm of swine) larval stages 3 and 4; assay: Activity against Ascaridia galli and Oesophagostomum dentatum larvae in vitro (minimum effective concentration); type: cell-based
Haemonchus contortus [2] = assay: Efficacy against Haemonchus contortus in sheep; type: in vivo; conditions: oral, single treatment, worm burden in abomasum 7 days after treatment
Procedure: Anthelmintic effects of compounds of this invention were tested in vivo using Haemonchus contortus in sheep. The sheep were orally infected with approximately 5,000 third-stage larvae of Haemonchus contortus. Thirty-five days after infection, the sheep in the treatment groups were treated once orally at a dose of 2, 5, 10, and/or 50 mg per kg bodyweight. Seven days after treatment, the sheep were necropsied, and the worm burden in the abomasum was determined. The efficacy was defined as the reduction of the mean worm count in the infected sheep of the treatment groups in comparison to the infected sheep in the untreated negative control group.

[3] = system: Haemonchus contortus larval stage 4, isolate with a resistance to benzimidazoles and ivermectin and anthelmintic-sensitive isolate; assay: Resistance-breaking activity against Haemonchus contortus L4 in vitro, resistant isolate compared with sensitive isolate; type: cell-based; conditions: isolate resistant to benzimidazoles and ivermectin vs sensitive isolate
Procedure: Anthelmintic resistance-breaking effects of compounds of this invention were tested in vitro using larval stage 4 (“L4”) of the parasitic nematode species Haemonchus contortus (Barber's pole worm in ruminants). One isolate of Haemonchus contortus with a resistance to benzimidazoles and ivermectin was tested in comparison to the anthelmintic-sensitive isolate of Haemonchus contortus. When conducting these experiments, various concentrations of the compounds were incubated in 96-well microtiter plates. Parasites were then distributed at 20 larvae per well. The anthelmintic effects were classified by microscopic examination. The microscopic examination included assessing mortality, damage, motility, progression of development, and neutral red uptake by the larvae in comparison to a DMSO-control and standard anthelmintics. The anthelmintic effects were defined by the minimum effective concentration (“MEC”).

Haemonchus contortus [4] = assay: Efficacy against Haemonchus contortus in jirds; type: in vivo, jirds (Meriones unguiculatus); conditions: 72 h, read-out: % Reduction in H.
Summary of the method: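 Jirds orally infected with ~750-3,000 H. contortus L3 larvae were dosed once, orally or subcutaneously, at 2, 10 and/or 50 mg/kg on day 10 post-infection. Stomach larval burden was counted at necropsy 3 days post-treatment; efficacy is the reduction of mean count versus untreated infected controls.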

[5] = read-out: MEC (minimum effective concentration) against two or more of the tested nematodes, in vitro, two or more of A. galli L3, O. dentatum L3, L4, threshold 1 μM

Structure (SMILES)	minimal effective concentration [1, 5]	% Reduction in H. (Haemonchus contortus [2]; 50 mg/kg)	activity (MEC) against the resistant versus the sensitive isolate of Haemonchus contortus [3]	inhibition in vivo at 50 mg/kg (Haemonchus contortus [4]; po)	inhibition in vivo at 50 mg/kg (Haemonchus contortus [4]; sc)	minimal effective concentration ([1]; read-out: MEC (minimum effective concentration) against one or more of the tested nematodes, in vitro, one or more of A. galli L3, O. dentatum L3, L4, threshold 1 μM)	minimal effective concentration ([1]; read-out: MEC (minimum effective concentration) against one or more of the tested nematodes, in vitro, one or more of A. galli L3, O. dentatum L3, L4, threshold 7 μM)	% Reduction in H. (Haemonchus contortus [2]; 10 mg/kg)
N#Cc1ccc(NC2CCN(C(=O)CCN3CCN(c4ccc(Cl)cc4)CC3)CC2)cc1C(F)(F)F [Example 325]	< 1 µM	96%	the same activity against the resistant and the sensitive isolate	92%	97%	–	–	–
CC(CN1CCN(c2ccc(C(F)(F)F)cc2)CC1)C(=O)N1CCC(Nc2ccc([N+](=O)[O-])c(C(F)(F)F)c2)CC1 (stereo not drawn) [Example 64, 2-methyl-1-[4-(4-nitro-3-trifluoromethyl-phenylamino)-piperidin-1-yl]-3-[4-(4-trifluoromethyl-phenyl)-piperazin-1-yl]-propan-1-one]	< 1 µM	–	the same activity against the resistant and the sensitive isolate	100%	100%	< 1 µM	< 7 µM	75%
